Test results published in ChEMBL document CHEMBL5537151, “Design, synthesis and bioactivity evaluation of novel fusion peptides and their CPT conjugates inducing effective anti-tumor responses on HER2 positive tumors” (Eur J Med Chem, 2024).
Peptide text beside a SMILES is read from it. * marks the point of attachment. X2 = CCC1(OC(=O)CCCCCN2C(=O)CC(*)C2=O)C(=O)OCc2c1cc1n(c2=O)Cc2cc3ccccc3nc2-1; X4 = CCC1(OC(=O)OCCSSC[C@H](N)C(=O)*)C(=O)OCc2c1cc1n(c2=O)Cc2cc3ccccc3nc2-1; X1 = CCC1(C(=O)OCCS*)C(=O)OCc2c1cc1n(c2=O)Cc2cc3ccccc3nc2-1; X5 = CCC1(OC(=O)CCS*)C(=O)OCc2c1cc1n(c2=O)Cc2cc3ccccc3nc2-1

Columns and labels:
[1] = Cytotoxicity against HER-negative human MCF-10A cells incubated for 48 hrs by CCK-8 assay; type: toxicity, cell-based
[2] = system: SK-BR-3; experiment: cells; settings: Homo sapiens, SK-BR-3, 48 h
Description: Cytotoxicity against HER-positive human SK-BR-3 cells incubated for 48 hrs by CCK-8 assay

[3] = system: NCI-N87; experiment: cells; settings: Homo sapiens, NCI-N87, 48 h
Description: Cytotoxicity against HER-positive human NCI-N87 cells incubated for 48 hrs by CCK-8 assay

[4] = system: SK-OV-3; experiment: cells; settings: Homo sapiens, SK-OV-3, 48 h
Description: Cytotoxicity against HER-positive human SK-OV-3 cells incubated for 48 hrs by CCK-8 assay

[5] = system: MDA-MB-231; experiment: cells; settings: Homo sapiens, MDA-MB-231, 48 h
Description: Cytotoxicity against HER-negative human MDA-MB-231 cells incubated for 48 hrs by CCK-8 assay

IC50 [2] [µM] | IC50 [3] [µM] | IC50 [4] [µM] | IC50 [5] [µM] | SMILES | IC50 at 48 h [1] [µM]
2.59 | 5.93 | 8.24 | 10.6 | CC[C@H](C)[C@H](NC(=O)[C@@H]1CCCN1C(=O)[C@@H](NC(=O)[C@H](C)N)C(C)C)C(=O)N[C@@H](C)C(=O)N[C@@H](CCC(N)=O)C(=O)N[C@@H](CCCCN)C(=O)NCC(=O)N[C@@H](Cc1ccccc1)C(=O)N[C@@H](CC(C)C)C(=O)NCC(=O)N[C@@H](CSSCCOC(=O)C1(CC)C(=O)OCc2c1cc1n(c2=O)Cc2cc3ccccc3nc2-1)C(=O)N[C@@H](CC(N)=O)C(=O)N1CCC[C@H]1C(=O)N[C@@H](CC(N)=O)C(=O)N[C@@H](Cc1c[nH]c2ccccc12)C(=O)NCC(=O)N[C@@H](CCCNC(=N)N)C(=O)N[C@@H](CO)C(=O)N[C@@H](Cc1c[nH]c2ccccc12)C(=O)N[C@@H](Cc1ccc(O)cc1)C(=O)N[C@@H](CC(N)=O)C(=O)N[C@@H](CCC(N)=O)C(=O)N[C@@H](CCCNC(=N)N)C(=O)N[C@@H](Cc1ccccc1)C(=O)N[C@@H](CCCCN)C(N)=O (stereo not given in full) (H-AVPIAQKGFLGC(X1)NPNWGRSWYNQRFK-NH2) | 15.1
1.78 | 6.53 | 5.81 | 16.2 | CC[C@H](C)[C@H](NC(=O)[C@@H]1CCCN1C(=O)[C@@H](NC(=O)[C@H](C)N)C(C)C)C(=O)N[C@@H](C)C(=O)N[C@@H](CCC(N)=O)C(=O)N[C@@H](CCCCN)C(=O)N[C@@H](CSSCCC(=O)OC1(CC)C(=O)OCc2c1cc1n(c2=O)Cc2cc3ccccc3nc2-1)C(=O)NCC(=O)N[C@@H](Cc1ccccc1)C(=O)N[C@@H](CC(C)C)C(=O)NCC(=O)N[C@@H](CC(N)=O)C(=O)N1CCC[C@H]1C(=O)N[C@@H](CC(N)=O)C(=O)N[C@@H](Cc1c[nH]c2ccccc12)C(=O)NCC(=O)N[C@@H](CCCNC(=N)N)C(=O)N[C@@H](CO)C(=O)N[C@@H](Cc1c[nH]c2ccccc12)C(=O)N[C@@H](Cc1ccc(O)cc1)C(=O)N[C@@H](CC(N)=O)C(=O)N[C@@H](CCC(N)=O)C(=O)N[C@@H](CCCNC(=N)N)C(=O)N[C@@H](Cc1ccccc1)C(=O)N[C@@H](CCCCN)C(N)=O (stereo not given in full) (H-AVPIAQKC(X5)GFLGNPNWGRSWYNQRFK-NH2) | 22.1

Second part, the molecule before the results:

SMILES | IC50 [2] [µM] | IC50 [3] [µM] | IC50 [4] [µM] | IC50 [5] [µM] | IC50 at 48 h [1] [µM]
CC[C@H](C)[C@H](NC(=O)[C@@H]1CCCN1C(=O)[C@@H](NC(=O)[C@H](C)N)C(C)C)C(=O)N[C@@H](C)C(=O)N[C@@H](CCC(N)=O)C(=O)N[C@@H](CCCCN)C(=O)N[C@@H](CSC1CC(=O)N(CCCCCC(=O)OC2(CC)C(=O)OCc3c2cc2n(c3=O)Cc3cc4ccccc4nc3-2)C1=O)C(=O)NCC(=O)N[C@@H](Cc1ccccc1)C(=O)N[C@@H](CC(C)C)C(=O)NCC(=O)N[C@@H](CC(N)=O)C(=O)N1CCC[C@H]1C(=O)N[C@@H](CC(N)=O)C(=O)N[C@@H](Cc1c[nH]c2ccccc12)C(=O)NCC(=O)N[C@@H](CCCNC(=N)N)C(=O)N[C@@H](CO)C(=O)N[C@@H](Cc1c[nH]c2ccccc12)C(=O)N[C@@H](Cc1ccc(O)cc1)C(=O)N[C@@H](CC(N)=O)C(=O)N[C@@H](CCC(N)=O)C(=O)N[C@@H](CCCNC(=N)N)C(=O)N[C@@H](Cc1ccccc1)C(=O)N[C@@H](CCCCN)C(N)=O (stereo not given in full) (H-AVPIAQKC(X2)GFLGNPNWGRSWYNQRFK-NH2) | 15.7 | 20.1 | > 50 | 28.2 | > 50
CC[C@H](C)[C@H](NC(=O)[C@@H]1CCCN1C(=O)[C@@H](NC(=O)[C@H](C)N)C(C)C)C(=O)N[C@@H](C)C(=O)N[C@@H](CCC(N)=O)C(=O)N[C@@H](CCCCN)C(=O)NCC(=O)N[C@@H](Cc1ccccc1)C(=O)N[C@@H](CC(C)C)C(=O)NCC(=O)N[C@@H](CC(N)=O)C(=O)N1CCC[C@H]1C(=O)N[C@@H](CC(N)=O)C(=O)N[C@@H](Cc1c[nH]c2ccccc12)C(=O)NCC(=O)N[C@@H](CCCNC(=N)N)C(=O)N[C@@H](CO)C(=O)N[C@@H](Cc1c[nH]c2ccccc12)C(=O)N[C@@H](Cc1ccc(O)cc1)C(=O)N[C@@H](CC(N)=O)C(=O)N[C@@H](CCC(N)=O)C(=O)N[C@@H](CCCNC(=N)N)C(=O)N[C@@H](Cc1ccccc1)C(=O)N[C@@H](CCCCNC(=O)[C@@H](N)CSSCCOC(=O)OC1(CC)C(=O)OCc2c1cc1n(c2=O)Cc2cc3ccccc3nc2-1)C(N)=O (stereo not given in full) (H-AVPIAQKGFLGNPNWGRSWYNQRFK(X4)-NH2) | 0.58 | 3.86 | 6.17 | 4.73 | 15.2
CC[C@H](C)[C@H](NC(=O)[C@@H]1CCCN1C(=O)[C@@H](NC(=O)[C@H](C)N)C(C)C)C(=O)N[C@@H](C)C(=O)N[C@@H](CCC(N)=O)C(=O)N[C@@H](CCCCN)C(=O)NCC(=O)N[C@@H](Cc1ccccc1)C(=O)N[C@@H](CC(C)C)C(=O)NCC(=O)N[C@@H](CSC1CC(=O)N(CCCCCC(=O)OC2(CC)C(=O)OCc3c2cc2n(c3=O)Cc3cc4ccccc4nc3-2)C1=O)C(=O)N[C@@H](CC(N)=O)C(=O)N1CCC[C@H]1C(=O)N[C@@H](CC(N)=O)C(=O)N[C@@H](Cc1c[nH]c2ccccc12)C(=O)NCC(=O)N[C@@H](CCCNC(=N)N)C(=O)N[C@@H](CO)C(=O)N[C@@H](Cc1c[nH]c2ccccc12)C(=O)N[C@@H](Cc1ccc(O)cc1)C(=O)N[C@@H](CC(N)=O)C(=O)N[C@@H](CCC(N)=O)C(=O)N[C@@H](CCCNC(=N)N)C(=O)N[C@@H](Cc1ccccc1)C(=O)N[C@@H](CCCCN)C(N)=O (stereo not given in full) (H-AVPIAQKGFLGC(X2)NPNWGRSWYNQRFK-NH2) | 18.3 | 25.3 | > 50 | 30.6 | > 50
